Measured values taken from US20240252456A1, “ORAL COMPOSITION, SKIN COSMETIC AND HAIR COSMETIC” (MARUZEN PHARMACEUTICALS CO., LTD., priority 2021, published 2024).

Key:
TGM1 mRNA = experiment: Transglutaminase-1 (TGM1) mRNA expression promotive action test; format: cell-based, human; settings: NHEK, 24 hours, A/B×100, corrected with GAPDH
Description: Normal human neonatal epidermal keratinocytes (NHEK) were precultured using normal human epidermal keratinocyte growth medium (KGM), and the cells were collected by a trypsin treatment. The collected cells were diluted with KGM to a cell density of 15×10^4 cells/mL, then seeded with 2 mL portions in a 6-well plate (30×10^4 cells/well), and cultured overnight under conditions of 37° C. and 5% CO2. After culturing, the medium was replaced with normal human epidermal keratinocyte basal medium (KBM, the above KGM without addition of growth additives (hEGF, BPE, insulin, antibacterial agents, hydrocortisone)), and culturing was further performed for 24 hours.
After culturing for 24 hours, the medium was removed, and 2 mL of each of test samples (Samples 1 to 3, see Table 15 below for final concentrations) dissolved in KBM was added to each well, and culturing was performed under conditions of 37° C. and 5% CO2 for 24 hours. As a control, culturing was performed in the same manner using KBM to which no sample was added. After culturing, the medium was removed, total RNA was extracted using ISOGEN II (available from NIPPON GENE CO., LTD.), each RNA amount was measured using a spectrophotometer, and the total RNA was prepared so as to be 150 ng/μL.
For TGM1 and GAPDH as an internal standard, the expression levels of mRNA were measured using the above total RNA as a template. Detection was performed through a two-step real-time RT-PCR reaction using a real-time PCR device, Thermal Cycler Dice Real Time System III (available from Takara Bio Inc.), with PrimeScript™ RT Master Mix (Perfect Real Time) (available from Takara Bio Inc.) and TB Green® Fast qPCR Mix (available from Takara Bio Inc.). The primers used were those having the sequences 5′-[…]-3′ and 5′-[…]-3′.
The expression level of TGM1 mRNA was obtained as a value corrected with a value of GAPDH based on total RNA preparations prepared from cells cultured “with test sample addition” and “without sample addition.” From the obtained values, the TGM1 mRNA expression promotion rate (%) was calculated using the following equation.
TGM1 mRNA expression promotion rate (%)=A/B×100
Terms in the equation represent the following respective ones. • A: Corrected value with test sample addition • B: Corrected value without sample addition

[1] = target: T1, testosterone 5α-reductase (S-9, rat liver homogenate) (Rattus norvegicus, UniProt P24008); experiment: Testosterone 5α-reductase inhibitory action test; format: biochemical; settings: rat liver S-9, read-out: Testosterone 5 α-reductase inhibition rate; for inhibition at 2000 µM: 2000 μmol/L; for inhibition at 8000 µM: 8000 μmol/L
T1 construct: tissue Oriental Yeast Co., Ltd. S-9; host or cells: rat liver homogenate (S-9 fraction)
T1 sequence (P24008 1-259): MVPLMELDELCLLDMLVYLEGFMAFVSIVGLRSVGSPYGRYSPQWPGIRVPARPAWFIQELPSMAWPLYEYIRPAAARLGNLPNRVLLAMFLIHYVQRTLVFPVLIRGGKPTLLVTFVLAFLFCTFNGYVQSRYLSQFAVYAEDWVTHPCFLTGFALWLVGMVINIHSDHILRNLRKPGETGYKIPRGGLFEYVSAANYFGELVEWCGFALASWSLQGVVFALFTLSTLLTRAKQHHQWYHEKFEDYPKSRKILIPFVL
Description: In a V-bottom test tube with a lid, 20 μL of a 4.2 mg/mL testosterone (available from FUJIFILM Wako Pure Chemical Corporation) solution prepared with propylene glycol and 825 μL of 5 mmol/L Tris-HCl (pH 7.13) buffer solution containing 1 mg/mL NADPH were mixed.
Furthermore, 80 μL of each of test sample solutions (Samples 1 to 3, see Table 24 below for final concentrations) prepared with 80% ethanol and 75 μL of S-9 (available from Oriental Yeast Co., Ltd., rat liver homogenate) were added, mixed, and incubated at 37° C. for 60 minutes. After that, 1 mL of methylene chloride was added to stop the reaction. This was centrifuged (1600×g, 10 minutes), the methylene chloride layer was separated, and the separated methylene chloride layer was subjected to gas chromatography analysis under the following conditions to determine the concentrations of 3α-androstanediol, 5α-dihydrotestosterone (5α-DHT), and testosterone. As a control, the same process was performed using the same amount (80 μL) of the sample solvent in place of the test sample solution, and the control was subjected to gas chromatography analysis.
• Device used: Shimadzu GC-2010 (available from Shimadzu Corporation) • Column: DB-1701 (inner diameter: 0.53 mm, length: 30 m, film thickness: 1.0 μm) (available from J&W Scientific) • Column temperature: 240° C. • Inlet temperature: 300° C. • Detector: FID • Sample injection amount: 1 μL • Split ratio: 1:2 • Carrier gas: Nitrogen gas • Carrier gas flow rate: 12 mL/min
Quantitative determination of the concentrations of 3α-androstanediol, 5α-DHT, and testosterone was performed by the following method.
Standard products of 3α-androstanediol, 5α-DHT, and testosterone were each dissolved in ethanol, and the solutions were subjected to gas chromatography analysis. From the concentrations (μg/mL) and peak areas of these compounds, the correspondence relationship between the peak area and the concentration of each compound was preliminarily obtained. Then, the concentration per peak area of each of 3α-androstanediol, 5α-DHT, and testosterone after the reaction between testosterone and S-9 was obtained based on the following equation (1) using the correspondence relationship which was preliminarily obtained.
Terms in the equation represent the following respective ones. • A: Concentration of 3α-androstanediol, 5α-DHT, or testosterone • B: Peak area of 3α-androstanediol, 5α-DHT, or testosterone • C: Concentration of standard product • D: Peak area of standard product
Using the compound concentration calculated based on the equation (1), the conversion ratio (concentration ratio between the concentration of 3α-androstanediol and 5α-DHT produced by reduction of testosterone due to testosterone 5α-reductase and the initial concentration of testosterone) was calculated based on the following equation (2).
Terms in the equation represent the following respective ones. • E: Concentration of 3α-androstanediol (μg/mL) • F: Concentration of 5α-DHT (μg/mL) • G: Concentration of testosterone (μg/mL)
Using the conversion ratio calculated based on the equation (2), the testosterone 5α-reductase inhibition rate (%) was calculated based on the following equation (3).
Terms in the equation represent the following respective ones. • H: Conversion ratio with test sample addition • I: Conversion ratio without sample addition

Row | SMILES | TGM1 mRNA expression promotion rate (TGM1 mRNA; 6.25 μmol/L) [%] | TGM1 mRNA expression promotion rate (TGM1 mRNA; 25 μmol/L) [%] | TGM1 mRNA expression promotion rate (TGM1 mRNA; 100 μmol/L) [%] | inhibition at 2000 µM [1] [%] | inhibition at 8000 µM [1] [%]
1 | O=C(O)CCc1ccc(O)c(O)c1 [Sample 1, 3,4-Dihydroxyhydrocinnamic acid] | 214.6 | 528.6 | 1617.1 | 34.3 | 100
2 | O=C(O)CCc1ccc(O)cc1 [Sample 2, 3-(4-Hydroxyphenyl)propionic acid] | – | – | 160.8 | 71 | 100
3 | O=C(O)CCc1ccccc1 [Sample 3, 3-phenylpropionic acid] | – | 218.5 | 174.9 | 76.4 | 100
